Results as given in ChEMBL document CHEMBL5113401, “Novel 1,3,4-oxadiazole chalcogen analogues: Synthesis and cytotoxic activity” (Eur J Med Chem, 2022).
Calls of active or inactive are those of the source. No cut-off for these calls is given here.

tested on: MCF7; experiment: Antiproliferative activity against human MCF7 cells assessed as inhibition of cell growth incubated for 48 hrs by XTT assay; type: functional, cell-based; details: MCF7, 48 h

Compound | IC50 [µM]
Cc1[nH]c2c(c1-c1nnc(-c3ccc(C(C)(C)C)cc3)[se]1)Cc1ccccc1-2 | > 10
Cc1[nH]c2c(c1-c1nnc(-c3ccccc3Cl)s1)Cc1ccccc1-2 | 0.468
COc1ccc(-c2nnc(-c3c(C)[nH]c4c3Cc3ccccc3-4)s2)cc1 | > 10
COc1cc(-c2nnc(-c3c(C)[nH]c4c3Cc3ccccc3-4)s2)cc(OC)c1OC | > 10

tested on: HeLa; experiment: Antiproliferative activity against human HeLa cells assessed as inhibition of cell growth incubated for 48 hrs by XTT assay; type: functional, cell-based; details: not given

Compound | IC50 [µM]
Cc1[nH]c2c(c1-c1nnc(-c3ccc(C(C)(C)C)cc3)[se]1)Cc1ccccc1-2 | > 10
Cc1[nH]c2c(c1-c1nnc(-c3ccccc3Cl)s1)Cc1ccccc1-2 | 0.145
COc1ccc(-c2nnc(-c3c(C)[nH]c4c3Cc3ccccc3-4)s2)cc1 | > 10
COc1cc(-c2nnc(-c3c(C)[nH]c4c3Cc3ccccc3-4)s2)cc(OC)c1OC | > 10

tested on: PC-3; experiment: Antiproliferative activity against human PC-3 cells assessed as inhibition of cell growth incubated for 48 hrs by XTT assay; type: functional, cell-based; details: PC-3, 48 h

Compound | IC50 [µM]
Cc1[nH]c2c(c1-c1nnc(-c3ccc(C(C)(C)C)cc3)[se]1)Cc1ccccc1-2 | > 10
Cc1[nH]c2c(c1-c1nnc(-c3ccccc3Cl)s1)Cc1ccccc1-2 | 0.176
COc1ccc(-c2nnc(-c3c(C)[nH]c4c3Cc3ccccc3-4)s2)cc1 | > 10
COc1cc(-c2nnc(-c3c(C)[nH]c4c3Cc3ccccc3-4)s2)cc(OC)c1OC | > 10

tested on: HFF-1; experiment: Cytotoxicity against HFF-1 cells assessed as reduction in cell viability at 1 to 2 uM incubated for 48 hrs by XTT assay; type: toxicity, cell-based; details: human, hff-1, 48 h, dose 1-2 µM

Compound | Activity
Cc1[nH]c2c(c1-c1nnc(-c3ccccc3Cl)s1)Cc1ccccc1-2 | Non-Toxic

tested on: NB1; experiment: Cytotoxicity against human NB1 cells immortalized with hTERT plasmid assessed as reduction in cell viability at 1 to 2 uM incubated for 48 hrs by XTT assay; type: toxicity, cell-based; details: nb1, 48 h, dose 1-2 µM

Compound | Activity
Cc1[nH]c2c(c1-c1nnc(-c3ccccc3Cl)s1)Cc1ccccc1-2 | Non-Toxic

tested on: HeLa; experiment: Inhibition of colony formation in human HeLa cells at IC50 incubated for 2 weeks with culture medium replacement for every 3 days by crystal violet staining based analysis; type: functional, cell-based; details: not given

Compound | inhibition
Cc1[nH]c2c(c1-c1nnc(-c3ccccc3Cl)s1)Cc1ccccc1-2 | Active

tested on: PC-3; experiment: Inhibition of colony formation in human PC-3 cells at IC50 incubated for 2 weeks with culture medium replacement for every 3 days by crystal violet staining based analysis; type: functional, cell-based; details: not given

Compound | inhibition
Cc1[nH]c2c(c1-c1nnc(-c3ccccc3Cl)s1)Cc1ccccc1-2 | Active

tested on: HeLa; experiment: Induction of cell cycle arrest in human HeLa cells assessed as accumulation of cells at G1 phase at 1 uM incubated for 6 hrs by FACS flow cytometry analysis (reference value: 69.94 +/- 1.71 %); type: functional; details: not given

Compound | Activity [%]
Cc1[nH]c2c(c1-c1nnc(-c3ccccc3Cl)s1)Cc1ccccc1-2 | 27.25

tested on: HeLa; experiment: Induction of cell cycle arrest in human HeLa cells assessed as accumulation of cells at S phase at 1 uM incubated for 6 hrs by FACS flow cytometry analysis (reference value: 17.41 +/- 0.96 %); type: functional; details: not given

Compound | Activity [%]
Cc1[nH]c2c(c1-c1nnc(-c3ccccc3Cl)s1)Cc1ccccc1-2 | 68.91

tested on: HeLa; experiment: Induction of cell cycle arrest in human HeLa cells assessed as accumulation of cells at G2/M phase at 1 uM incubated for 6 hrs by FACS flow cytometry analysis (reference value: 12.66 +/- 0.88 %); type: functional; details: not given

Compound | Activity [%]
Cc1[nH]c2c(c1-c1nnc(-c3ccccc3Cl)s1)Cc1ccccc1-2 | 3.84

tested on: HeLa; experiment: Induction of cell cycle arrest in human HeLa cells assessed as accumulation of cells at G1 phase at 1 uM incubated for 18 hrs by FACS flow cytometry analysis (reference value: 69.94 +/- 1.25 %); type: functional; details: not given

Compound | Activity [%]
Cc1[nH]c2c(c1-c1nnc(-c3ccccc3Cl)s1)Cc1ccccc1-2 | 1.49

tested on: HeLa; experiment: Induction of cell cycle arrest in human HeLa cells assessed as accumulation of cells at S phase at 1 uM incubated for 18 hrs by FACS flow cytometry analysis (reference value: 17.41 +/- 1.16 %); type: functional; details: not given

Compound | Activity [%]
Cc1[nH]c2c(c1-c1nnc(-c3ccccc3Cl)s1)Cc1ccccc1-2 | 9.52

tested on: HeLa; experiment: Induction of cell cycle arrest in human HeLa cells assessed as accumulation of cells at G2/M phase at 1 uM incubated for 18 hrs by FACS flow cytometry analysis (reference value: 12.66 +/- 0.92 %); type: functional; details: not given

Compound | Activity [%]
Cc1[nH]c2c(c1-c1nnc(-c3ccccc3Cl)s1)Cc1ccccc1-2 | 88.99

tested on: PC-3; experiment: Induction of cell cycle arrest in human PC-3 cells assessed as accumulation of cells at G1 phase at 1 uM incubated for 6 hrs by FACS flow cytometry analysis (reference value: 44.2 +/- 2.21 %); type: functional; details: not given

Compound | Activity [%]
Cc1[nH]c2c(c1-c1nnc(-c3ccccc3Cl)s1)Cc1ccccc1-2 | 11.13

tested on: PC-3; experiment: Induction of cell cycle arrest in human PC-3 cells assessed as accumulation of cells at S phase at 1 uM incubated for 6 hrs by FACS flow cytometry analysis (reference value: 35.06 +/- 1.85 %); type: functional; details: not given

Compound | Activity [%]
Cc1[nH]c2c(c1-c1nnc(-c3ccccc3Cl)s1)Cc1ccccc1-2 | 51.2

tested on: PC-3; experiment: Induction of cell cycle arrest in human PC-3 cells assessed as accumulation of cells at G2/M phase at 1 uM incubated for 6 hrs by FACS flow cytometry analysis (reference value: 20.74 +/- 1.93 %); type: functional; details: not given

Compound | Activity [%]
Cc1[nH]c2c(c1-c1nnc(-c3ccccc3Cl)s1)Cc1ccccc1-2 | 37.68

tested on: PC-3; experiment: Induction of cell cycle arrest in human PC-3 cells assessed as accumulation of cells at G1 phase at 1 uM incubated for 12 hrs by FACS flow cytometry analysis (reference value: 44.2 +/- 2.01 %); type: functional; details: not given

Compound | Activity [%]
Cc1[nH]c2c(c1-c1nnc(-c3ccccc3Cl)s1)Cc1ccccc1-2 | 1.71

tested on: PC-3; experiment: Induction of cell cycle arrest in human PC-3 cells assessed as accumulation of cells at S phase at 1 uM incubated for 12 hrs by FACS flow cytometry analysis (reference value: 35.06 +/- 1.36 %); type: functional; details: not given

Compound | Activity [%]
Cc1[nH]c2c(c1-c1nnc(-c3ccccc3Cl)s1)Cc1ccccc1-2 | 5.55

tested on: PC-3; experiment: Induction of cell cycle arrest in human PC-3 cells assessed as accumulation of cells at G2/M phase at 1 uM incubated for 12 hrs by FACS flow cytometry analysis (reference value: 20.74 +/- 1.95 %); type: functional; details: not given

Compound | Activity [%]
Cc1[nH]c2c(c1-c1nnc(-c3ccccc3Cl)s1)Cc1ccccc1-2 | 92.74

molecular target: T1, Tubulin (Homo sapiens) (UniProt P68371+Q9H4B7+P0DPH7+P68366+Q13509+Q71U36+P04350+Q3ZCM7+P07437+P68363+Q9BQE3+Q6PEY2+Q13885+Q9BVA1+Q9BUF5); experiment: Inhibition of tubulin polymerization in human HeLa cells assessed as irregular cell morphology at 0.5 uM incubated for 6 hrs by DAPI staining based fluorescence microscopic analysis; details: not given

Compound | inhibition
Cc1[nH]c2c(c1-c1nnc(-c3ccccc3Cl)s1)Cc1ccccc1-2 | Active

molecular target: T1, Tubulin (Homo sapiens); experiment: Inhibition of tubulin polymerization in human HeLa cells assessed as aberrations in mitotic spindle and nucleus at 0.5 uM incubated for 6 hrs by DAPI staining based fluorescence microscopic analysis; type: cell-based; details: not given

Compound | inhibition
Cc1[nH]c2c(c1-c1nnc(-c3ccccc3Cl)s1)Cc1ccccc1-2 | Active

molecular target: T1, Tubulin (Homo sapiens); experiment: Inhibition of tubulin polymerization in human HeLa cells assessed as abnormal microtubule network at 0.5 uM incubated for 6 hrs by DAPI staining based fluorescence microscopic analysis; type: cell-based; details: not given

Compound | inhibition
Cc1[nH]c2c(c1-c1nnc(-c3ccccc3Cl)s1)Cc1ccccc1-2 | Active

tested on: HeLa; experiment: Induction of apoptosis in human HeLa cells assessed as viable cells at 1 uM incubated for 24 hrs by Annexin V-FITC/7-AAD staining based flow cytometric analysis (reference value: 85.6 +/- 1.061%); type: functional; details: read-out: Activity

Compound | viability at 1 µM [%]
Cc1[nH]c2c(c1-c1nnc(-c3ccccc3Cl)s1)Cc1ccccc1-2 | 44.8

tested on: HeLa; experiment: Induction of apoptosis in human HeLa cells assessed as early apoptotic cells at 1 uM incubated for 24 hrs by Annexin V-FITC/7-AAD staining based flow cytometric analysis (reference value: 2.7 +/- 0.424 %); type: functional; details: not given

Compound | Activity [%]
Cc1[nH]c2c(c1-c1nnc(-c3ccccc3Cl)s1)Cc1ccccc1-2 | 31.9

tested on: HeLa; experiment: Induction of apoptosis in human HeLa cells assessed as late apoptotic cells at 1 uM incubated for 24 hrs by Annexin V-FITC/7-AAD staining based flow cytometric analysis (reference value: 11.1 +/- 0.778 %); type: functional; details: not given

Compound | Activity [%]
Cc1[nH]c2c(c1-c1nnc(-c3ccccc3Cl)s1)Cc1ccccc1-2 | 17.4

tested on: HeLa; experiment: Induction of apoptosis in human HeLa cells assessed as dead cells at 1 uM incubated for 24 hrs by Annexin V-FITC/7-AAD staining based flow cytometric analysis (reference value: 0.6 +/- 0.707 %); type: functional; details: not given

Compound | Activity [%]
Cc1[nH]c2c(c1-c1nnc(-c3ccccc3Cl)s1)Cc1ccccc1-2 | 5.9
